Reference: US12588678B2, “Oxazoline compound, synthesis method therefor and application thereof” (NANKAI UNIVERSITY, priority 2019, dated 2026)

What was measured:
[1] = tested on: Tetranychus cinnabarinus mite larvae; assay: Larvicidal activity test, dipping method on bean seedling leaves; assay type: in vivo; conditions: for acaricidal activity compared with etoxazole: Tetranychus cinnabarinus eggs and larvae, etoxazole as reference; for mortality at 0.01 µg/mL: read-out: mortality of mite larvae (%), 0.01 mg/L; for mortality at 0.05 µg/mL: read-out: mortality of mite larvae (%), 0.05 mg/L; for mortality at 0.1 µg/mL: read-out: mortality of mite larvae (%), 0.1 mg/L; for mortality at 1 µg/mL: read-out: mortality of mite larvae (%), 1 mg/L; for mortality at 10 µg/mL: read-out: mortality of mite larvae (%), 10 mg/L; for mortality at 100 µg/mL: read-out: mortality of mite larvae (%), 100 mg/L; for mortality at 200 µg/mL: read-out: mortality of mite larvae (%), 200 mg/L; for mortality at 0.5 µg/mL: read-out: mortality of mite larvae (%), 0.5 mg/L
Text: (§1) The assay examples are used to illustrate the acaricidal activity against Tetranychus cinnabarinus (mortality of mite larvae and mortality of mite eggs) of the compounds having the structure represented by formula (I), and the results are shown in tables 1 to 9, where mortality of mite larvae % =(number of dead mite larvae applied/total number of mite larvae applied)×100, and mortality of mite eggs %= (number of dead mite eggs applied/total number of mite eggs applied)×100.
Tetranychus cinnabarinus bred indoors on bean seedlings was used as a test subject by the dipping method. Move adult mites onto the newly grown complete bean seedling leaves with two leaves, cut off the bean seedlings, place the bean seedlings in a greenhouse with illumination at 25° C. for laying eggs for 24 hours, then remove adult mites and keep mite eggs. And continuously culture in the greenhouse for 5 days until mite eggs hatch into mite larvae (ensuring that the number of the mites on each tested leaf is not less than 60).
Completely immerse the bean seedling leaves containing the mite larvae into the sample solution to be detected with Tween at the prepared concentration for 5-6 seconds by using tweezers, slightly throw off residual liquid, put the bean seedling leaves back to the culture cup, continuously culture for 4 days and check the result. One of the plants was immersed in a solution containing no sample to be tested and the remaining additives were identical to the sample solution as a blank control. Each compound was replicated three times.

[2] = tested on: Tetranychus cinnabarinus mite eggs; assay: Activity against mite eggs, dipping method on bean seedling leaves; assay type: in vivo; conditions: for mortality at 0.01 µg/mL: read-out: mortality of mite eggs (%), 0.01 mg/L; for mortality at 0.1 µg/mL: read-out: mortality of mite eggs (%), 0.1 mg/L; for mortality at 1 µg/mL: read-out: mortality of mite eggs (%), 1 mg/L; for mortality at 10 µg/mL: read-out: mortality of mite eggs (%), 10 mg/L; for mortality at 100 µg/mL: read-out: mortality of mite eggs (%), 100 mg/L; for mortality at 200 µg/mL: read-out: mortality of mite eggs (%), 200 mg/L; for mortality at 0.5 µg/mL: read-out: mortality of mite eggs (%), 0.5 mg/L
Text: as §1
Tetranychus cinnabarinus bred indoors on bean seedlings was used as a test subject by the dipping method. Move female adult mites onto the newly grown complete bean seedling leaves with two leaves, cut off the bean seedlings, place the bean seedlings in a greenhouse with illumination at 25° C. for laying eggs for 24 hours, then remove adult mites and keep mite eggs. After continuously culturing in the greenhouse for one day, completely soak the bean seedling leaves containing the acarid eggs into the prepared sample solution to be tested for 5-6 seconds by using tweezers, slightly throw off residual liquid, put the bean seedling leaves back to the culture cup, continuously culture for 4 days and then check the result. One of the plants was immersed in a solution containing no sample to be tested and the remaining additives were identical to the sample solution as a blank control. Each compound was replicated three times.

[3] = Tetranychus cinnabarinus, 96 h, checked after 4 days

## O=C1c2ccccc2C(=O)N1Cc1ccc(C2COC(c3c(F)cccc3F)=N2)cc1 (stereo not drawn) [Compound R1-10]
[1]
  acaricidal activity compared with etoxazole: higher acaricidal activity than etoxazole
[1]; [3]
  mortality at 0.01 µg/mL: 40%
  mortality at 0.05 µg/mL: 55%
  mortality at 0.1 µg/mL: 70%
  mortality at 1 µg/mL: 80%
  mortality at 10 µg/mL: 95%
  mortality at 100 µg/mL: 100%
  mortality at 200 µg/mL: 100%
[2]; [3]
  mortality at 0.01 µg/mL: 40%
  mortality at 0.1 µg/mL: 75%
  mortality at 1 µg/mL: 85%
  mortality at 10 µg/mL: 90%
  mortality at 100 µg/mL: 100%
  mortality at 200 µg/mL: 100%
[2]; Tetranychus cinnabarinus, 96 h, read-out: mortality of mite eggs (%), 0.05 mg/L, checked after 4 days
  mortality at 0.05 µg/mL: 65%
[2]; relative to etoxazole
  activity on mite eggs, times that of etoxazole: 10 times

## Fc1ccc2ccn(Cc3ccc(C4COC(c5c(F)cccc5F)=N4)cc3)c2c1 (stereo not drawn) [Compound R1-21]
[1]; [3]
  mortality at 10 µg/mL: 60%
  mortality at 100 µg/mL: 100%
  mortality at 200 µg/mL: 100%
[2]; [3]
  mortality at 1 µg/mL: 30%
  mortality at 10 µg/mL: 70%
  mortality at 100 µg/mL: 100%
  mortality at 200 µg/mL: 100%

## Fc1cccc(F)c1C1=NC(c2ccc(COc3cccnc3)cc2)CO1 (stereo not drawn) [Compound R2-13]
[1]; [3]
  mortality at 1 µg/mL: 60%
  mortality at 10 µg/mL: 95%
  mortality at 100 µg/mL: 100%
  mortality at 200 µg/mL: 100%
[2]; [3]
  mortality at 0.1 µg/mL: 70%
  mortality at 1 µg/mL: 80%
  mortality at 10 µg/mL: 85%
  mortality at 100 µg/mL: 100%
  mortality at 200 µg/mL: 100%

## FCCOCc1ccc(C2COC(c3c(F)cccc3F)=N2)cc1 (stereo not drawn) [Compound R2-4]
[1]; [3]
  mortality at 0.1 µg/mL: 70%
  mortality at 1 µg/mL: 85%
  mortality at 10 µg/mL: 92%
  mortality at 100 µg/mL: 100%
  mortality at 200 µg/mL: 100%
[2]; [3]
  mortality at 0.1 µg/mL: 70%
  mortality at 1 µg/mL: 90%
  mortality at 10 µg/mL: 98%
  mortality at 100 µg/mL: 100%
  mortality at 200 µg/mL: 100%

## Fc1cccc(F)c1C1=NC(c2ccc(COCC3CCCO3)cc2)CO1 (stereo not drawn) [Compound R2-9]
[1]; [3]
  mortality at 1 µg/mL: 30%
  mortality at 10 µg/mL: 75%
  mortality at 100 µg/mL: 95%
  mortality at 200 µg/mL: 100%
[2]; [3]
  mortality at 1 µg/mL: 55%
  mortality at 10 µg/mL: 85%
  mortality at 100 µg/mL: 100%
  mortality at 200 µg/mL: 100%

## O=S(=O)(Oc1ccc(C2COC(c3c(F)cccc3F)=N2)cc1)c1cccc(F)c1 (stereo not drawn) [Compound R3-12]
[1]; [3]
  mortality at 1 µg/mL: 50%
  mortality at 10 µg/mL: 90%
  mortality at 100 µg/mL: 100%
  mortality at 200 µg/mL: 100%
[2]; [3]
  mortality at 1 µg/mL: 55%
  mortality at 10 µg/mL: 90%
  mortality at 100 µg/mL: 100%
  mortality at 200 µg/mL: 100%

## CC(C)(C)c1ccc(S(=O)(=O)Oc2ccc(C3COC(c4c(F)cccc4F)=N3)cc2)cc1 (stereo not drawn) [Compound R3-17]
[1]
  acaricidal activity compared with etoxazole: equivalent or better acaricidal activity compared with etoxazole
[1]; [3]
  mortality at 0.01 µg/mL: 35%
  mortality at 0.05 µg/mL: 50%
  mortality at 0.1 µg/mL: 85%
  mortality at 0.5 µg/mL: 90%
  mortality at 1 µg/mL: 95%
  mortality at 10 µg/mL: 100%
  mortality at 100 µg/mL: 100%
  mortality at 200 µg/mL: 100%
[2]; [3]
  mortality at 0.1 µg/mL: 45%
  mortality at 0.5 µg/mL: 78%
  mortality at 1 µg/mL: 90%
  mortality at 10 µg/mL: 96%
  mortality at 100 µg/mL: 100%
  mortality at 200 µg/mL: 100%

## Fc1cccc(F)c1C1=NC(c2ccc(Cn3cccn3)cc2)CO1 (stereo not drawn) [Compound R1-12]
[1]; [3]
  mortality at 10 µg/mL: 40%
  mortality at 100 µg/mL: 70%
  mortality at 200 µg/mL: 100%
[2]; [3]
  mortality at 10 µg/mL: 50%
  mortality at 100 µg/mL: 80%
  mortality at 200 µg/mL: 90%

## Cc1ccc(OCc2ccc(C3COC(c4c(F)cccc4F)=N3)cc2)cc1 (stereo not drawn) [Compound R2-22]
[1]; [3]
  mortality at 1 µg/mL: 55%
  mortality at 10 µg/mL: 88%
  mortality at 100 µg/mL: 96%
  mortality at 200 µg/mL: 100%
[2]; [3]
  mortality at 0.1 µg/mL: 80%
  mortality at 1 µg/mL: 90%
  mortality at 10 µg/mL: 100%
  mortality at 100 µg/mL: 100%
  mortality at 200 µg/mL: 100%

## Fc1cccc(F)c1C1=NC(c2ccc(COc3ccncc3)cc2)CO1 (stereo not drawn) [Compound R2-14]
[1]; [3]
  mortality at 100 µg/mL: 65%
  mortality at 200 µg/mL: 90%
[2]; [3]
  mortality at 10 µg/mL: 50%
  mortality at 100 µg/mL: 100%
  mortality at 200 µg/mL: 100%

## Fc1cccc(F)c1C1=NC(c2ccc(CN3CCCCCC3)cc2)CO1 (stereo not drawn) [Compound R1-2]
[1]; [3]
  mortality at 10 µg/mL: 35%
  mortality at 100 µg/mL: 75%
  mortality at 200 µg/mL: 90%
[2]; [3]
  mortality at 10 µg/mL: 55%
  mortality at 100 µg/mL: 80%
  mortality at 200 µg/mL: 95%

## Fc1cccc(F)c1C1=NC(c2ccc(COc3ccc(C(F)(F)F)cc3)cc2)CO1 (stereo not drawn) [Compound R2-23]
[1]; [3]
  mortality at 0.1 µg/mL: 75%
  mortality at 1 µg/mL: 80%
  mortality at 10 µg/mL: 95%
  mortality at 100 µg/mL: 100%
  mortality at 200 µg/mL: 100%
[2]; [3]
  mortality at 0.1 µg/mL: 75%
  mortality at 1 µg/mL: 85%
  mortality at 10 µg/mL: 90%
  mortality at 100 µg/mL: 90%
  mortality at 200 µg/mL: 100%

## Cc1ccc2c(ccn2Cc2ccc(C3COC(c4c(F)cccc4F)=N3)cc2)c1 (stereo not drawn) [Compound R1-16]
[1]; [3]
  mortality at 1 µg/mL: 50%
  mortality at 10 µg/mL: 65%
  mortality at 100 µg/mL: 100%
  mortality at 200 µg/mL: 100%
[2]; [3]
  mortality at 1 µg/mL: 50%
  mortality at 10 µg/mL: 70%
  mortality at 100 µg/mL: 100%
  mortality at 200 µg/mL: 100%

## Cc1ccc2ccn(Cc3ccc(C4COC(c5c(F)cccc5F)=N4)cc3)c2c1 (stereo not drawn) [Compound R1-17]
[1]; [3]
  mortality at 1 µg/mL: 20%
  mortality at 10 µg/mL: 40%
  mortality at 100 µg/mL: 100%
  mortality at 200 µg/mL: 100%
[2]; [3]
  mortality at 1 µg/mL: 40%
  mortality at 10 µg/mL: 65%
  mortality at 100 µg/mL: 100%
  mortality at 200 µg/mL: 100%

## Fc1cccc(F)c1C1=NC(c2ccc(COc3ccc(Cl)cc3)cc2)CO1 (stereo not drawn) [Compound R2-19]
[1]
  acaricidal activity compared with etoxazole: higher acaricidal activity than etoxazole
[1]; Tetranychus cinnabarinus, 96 h, read-out: mortality of mite larvae (%), 0.001 mg/L, checked after 4 days
  mortality at 0.001 µg/mL: 8%
[1]; [3]
  mortality at 0.01 µg/mL: 30%
  mortality at 0.1 µg/mL: 85%
  mortality at 0.5 µg/mL: 72%
  mortality at 1 µg/mL: 88%
  mortality at 10 µg/mL: 90%
  mortality at 100 µg/mL: 100%
  mortality at 200 µg/mL: 100%
[2]; Tetranychus cinnabarinus, 96 h, read-out: mortality of mite eggs (%), 0.001 mg/L, checked after 4 days
  mortality at 0.001 µg/mL: 10%
[2]; [3]
  mortality at 0.01 µg/mL: 32%
  mortality at 0.5 µg/mL: 80%
  mortality at 1 µg/mL: 90%
  mortality at 10 µg/mL: 100%
  mortality at 100 µg/mL: 100%
  mortality at 200 µg/mL: 100%

## C#CCCOCc1ccc(C2COC(c3c(F)cccc3F)=N2)cc1 (stereo not drawn) [Compound R2-7]
[1]; [3]
  mortality at 0.1 µg/mL: 40%
  mortality at 1 µg/mL: 75%
  mortality at 10 µg/mL: 90%
  mortality at 100 µg/mL: 100%
  mortality at 200 µg/mL: 100%
[2]; [3]
  mortality at 0.1 µg/mL: 70%
  mortality at 1 µg/mL: 90%
  mortality at 10 µg/mL: 95%
  mortality at 100 µg/mL: 100%
  mortality at 200 µg/mL: 100%

## Fc1cccc(F)c1C1=NC(c2ccc(COc3ccncn3)cc2)CO1 (stereo not drawn) [Compound R2-16]
[1]; [3]
  mortality at 100 µg/mL: 50%
  mortality at 200 µg/mL: 88%
[2]; [3]
  mortality at 10 µg/mL: 50%
  mortality at 100 µg/mL: 100%
  mortality at 200 µg/mL: 100%

## O=S(=O)(Oc1ccc(C2COC(c3c(F)cccc3F)=N2)cc1)c1ccc(F)c(F)c1F (stereo not drawn) [Compound R3-15]
[1]; [3]
  mortality at 0.1 µg/mL: 65%
  mortality at 1 µg/mL: 90%
  mortality at 10 µg/mL: 100%
  mortality at 100 µg/mL: 100%
  mortality at 200 µg/mL: 100%
[2]; [3]
  mortality at 1 µg/mL: 65%
  mortality at 10 µg/mL: 95%
  mortality at 100 µg/mL: 100%
  mortality at 200 µg/mL: 100%

## O=C1CCC(=O)N1Cc1ccc(C2COC(c3c(F)cccc3F)=N2)cc1 (stereo not drawn) [Compound R1-9]
[1]; [3]
  mortality at 10 µg/mL: 35%
  mortality at 100 µg/mL: 80%
  mortality at 200 µg/mL: 85%
[2]; [3]
  mortality at 10 µg/mL: 50%
  mortality at 100 µg/mL: 70%
  mortality at 200 µg/mL: 95%
